In brackets after ≈: the same amount, converted by molar mass. Residues, ends and D or L forms follow the SMILES beside them.
What was measured:
[1] = tested on: P. aeruginosa FRD1 biofilm; test: Biofilm eradication assay (crystal violet); assay type: cell-based, Pseudomonas aeruginosa; details: for biofilm eradication rate: 24-h mature FRD1 biofilm, 2 h
Procedure: (§1) In vitro static biofilm models have been reported in many studies ([45][–][47]). A Pseudomonas aeruginosa mucoid strain, FRD1, isolated from a cystic fibrosis patient, was used for the biofilm inhibition and eradication assay. The FRD1 strain was shock cultured to logarithmic growth stage at 37°C and 150 × g. After cleaning using PBS and centrifuging thrice, the bacteria were resuspended in MHB medium (with 0.2% glucose) and gradient diluted to an OD600 value of ~0.01.
For the eradication assay, biofilms of the FRD1 strain were grown in a 96-well plate. Briefly, 100-μL amounts of the bacterial suspension were plated and incubated at 37°C for 24 h. Then, wells containing the biofilms were washed thrice using PBS. The peptide was serially diluted in MHB medium (with 0.2% glucose) and added to the 96-well plates (100 μL/well). The plates were incubated for 2 h at 37°C. Finally, bacterial biofilms were quantified as described above for the biofilm inhibition assay.

[2] = tested on: P. aeruginosa FRD1 biofilm; test: Biofilm inhibition assay (crystal violet); assay type: cell-based, Pseudomonas aeruginosa; details: P. aeruginosa FRD1, 6.25 μg/mL (0.5× MIC), 37°C 24 h, triplicate
Procedure: as §1
For the biofilm inhibition assay, 90-μL amounts of bacterial suspensions and 10-μL amounts of increasing concentrations of the peptide were added to a 96-well plate and coincubated at 37°C for 24 h. Then, bacterial biofilms were quantified as follows: (i) planktonic bacteria were removed by washing thrice using PBS, (ii) biofilm bacteria were fixed in 100 μL of 4% paraformaldehyde at room temperature for 15 min and (iii) stained with 100 μL of 0.1% crystal violet for 30 min, (iv) the dye was removed, followed by washing twice using PBS, adding 200 μL of 95% ethanol to each well to dissolve the crystal violet, and finally, (v) absorbance was measured at 590 nm using an EnSpire multimode plate reader (PerkinElmer, Singapore).

Gram-positive bacteria = test: Time-kill curves (4x MIC); assay type: cell-based; details: 4× MIC
Procedure: (§2) Consistent with previous reports, time-kill curves of lcCCL28-25 against Gram-negative and Gram-positive bacteria were performed under 4× MIC conditions ([44]). Bacteria were incubated to the logarithmic growth stage. Bacterial cells in the logarithmic growth phase were diluted to achieve log(CFU/mL) values of ~5 to 6 and incubated with lcCCL28-25 for 1, 2, 4, 8, 16, 30, 60, 120, and 240 min. At each time point, 50-μL amounts of the samples were diluted to different concentrations and plated onto agar plates. After overnight incubation, the numbers of colonies on the plates were counted.

Gram-negative bacteria = test: Time-kill curves (4x MIC); assay type: cell-based; details: 4× MIC
Procedure: as §2

[3] = tested on: Klebsiella pneumoniae CMCC46117; assay type: cell-based; details: CMCC46117, 2 h
Procedure: (§3) The MIC assays were performed as previously described ([43]). Briefly, peptides were plated in a 2-fold dilution series (50 μL/well) of Mueller-Hinton broth (MHB) in Costar 96-well cell culture plates (Corning, NY, USA). Three repeats were set for each concentration. E. coli ATCC 25922, A. hydrophila ATCC 7966, P. aeruginosa PAO1, P. aeruginosa FRD1, S. aureus ATCC 25923, S. agalactiae ATCC 13813, S. pneumoniae ATCC 49619, methicillin-resistant S. aureus ATCC 43300, and methicillin-resistant S. aureus USA300 were cultured in Luria-Bertani (LB) medium, while K. pneumoniae CMCC46117 was cultured in tryptic soy broth (TSB) medium. Incubation was done at 37°C and 150 × g for 12 h. Bacteria were transferred to fresh MHB at a ratio of 1% (vol/vol) and incubated to reach a logarithmic growth phase. Then, 50 μL of a bacterial suspension at 4 × 10^6 CFU/mL was added to each well. […]

[4] = tested on: Aeromonas hydrophila ATCC 7966; assay type: cell-based; details: ATCC 7966, 2 h
Procedure: as §3

S. aureus ATCC 25923 = test: SYTOX green membrane permeability assay; assay type: cell-based, Staphylococcus aureus; details: S. aureus ATCC 25923, 5 μM SYTOX green, read every 1 min
Procedure: (§4) The SYTOX green staining assay was performed to assess peptide-associated membrane damage ([47], [52]). E. coli ATCC 25922 and S. aureus ATCC 25923 cells in the mid-logarithmic phase were collected, washed thrice, and resuspended (5 × 10^7 CFU/mL) in buffer B (10 mM Tris-HCl, pH 7.4, at 25°C). The bacterial suspensions were mixed with 5 μM SYTOX green and incubated for 15 min at room temperature in the dark. Then, the mixtures were added to black, clear-bottom 96-well plates at a density of 100 μL/well. After peptide addition, SYTOX green uptake was monitored using an EnSpire multimode plate reader (PerkinElmer, Singapore) with an excitation wavelength of 485 nm and an emission wavelength of 520 nm. Each measurement interval was 1 min, totaling 30 to 60 times. Melittin was used as the positive control, while bovine serum albumin (BSA) was the negative control.

E. coli ATCC 25922 = test: SYTOX green membrane permeability assay; assay type: cell-based, Escherichia coli; details: E. coli ATCC 25922, 5 μM SYTOX green, read every 1 min
Procedure: as §4

[5] = tested on: methicillin-resistant S. aureus standard strain USA300; test: Neutropenic mouse thigh infection model; assay type: in vivo; details: neutropenic BALB/c mice, 300 μg i.p. at 2 h postinfection
Procedure: Female BALB/c mice were used to construct a neutropenic murine thigh infection model as previously published ([48][–][50]). Briefly, mice (n = 9/group) were rendered neutropenic by consecutive intraperitoneal injections of 150 and 100 mg/kg of body weight cyclophosphamide at 4 and 1 day before bacterial injection ([51]). An S. aureus USA300 inoculum (~1.5 × 10^6 CFU/mL) was prepared by diluting logarithmic phase bacteria with fresh MHB. Each mouse was infected by intramuscular injection of 0.1 mL of the inoculum (~1.5 × 10^5 CFU) into the right thigh muscles. At 2 h postinfection, 0.1 mL of lcCCL28-25 peptide (300 μg) or vancomycin hydrochloride (300 μg, 15 mg/kg) was administered by intraperitoneal injection. The control group was injected with an equal volume of PBS. Untreated control mice were sacrificed at the start of treatment to establish the baseline bacterial burden. Mice in the three treatment groups (PBS, vancomycin, and lcCCL28-25) were sacrificed at 48 h postinfection. Their right thighs were aseptically harvested, placed in sterile saline and homogenized using a Bioprep-6 homogenizer (Allsheng, Hangzhou, China). After being serially diluted to 1:10 in sterile saline, 100-μL amounts of tissue suspensions at various concentrations were plated on LB agar to determine bacterial counts after incubation at 37°C for 24 h.

## CSCC[C@H](NC(=O)[C@H](Cc1c[nH]c2ccccc12)NC(=O)[C@H](CCCCN)NC(=O)[C@@H]1CCCN1C(=O)[C@H](Cc1c[nH]cn1)NC(=O)[C@H](C)N)C(=O)N[C@@H](CCC(=O)O)C(=O)N[C@H](C(=O)N[C@H](C(=O)N[C@@H](CCCNC(=N)N)C(=O)N[C@@H](CO)C(=O)N[C@@H](CCCNC(=N)N)C(=O)N[C@@H](CCC(N)=O)C(=O)N[C@@H](CCCNC(=N)N)C(=O)N[C@@H](CCCCN)C(=O)N[C@@H](CCCCN)C(=O)N[C@@H](CCCCN)C(=O)N[C@@H](Cc1c[nH]cn1)C(=O)N[C@@H](CC(N)=O)C(=O)N[C@@H](CCCCN)C(=O)N[C@@H](CCCNC(=N)N)C(=O)N[C@@H](CCCNC(=N)N)C(=O)N[C@@H](C)C(=O)N[C@H](C(=O)N[C@@H](Cc1ccc(O)cc1)C(=O)O)[C@@H](C)O)C(C)C)C(C)C [lcCCL28-25] (H-AHPKWMEVVRSRQRKKKHNKRRATY-OH; N-terminus and C-terminus assumed)
[1]; 12.5 μg/mL
  biofilm eradication rate: more than 80%
[1]; 25 μg/mL
  biofilm eradication rate: above 90%
[1]; 24-h mature P. aeruginosa FRD1 biofilm, 2 h treatment, crystal violet
  concentration required to eradicate ~50% of biofilm: 3.13 µg/mL
[2]
  reduction of biofilm formation: ~ 64%
Gram-positive bacteria
  time for CFU counts to be reduced by more than half: ≤ 10 min
Gram-negative bacteria
  time for CFU counts to be reduced by more than half: more than 1 h
[3]
  MIC: 25.00 µg/mL (≈ 7.83 µM)
[4]
  MIC: >50.00 µg/mL
S. aureus ATCC 25923
  SYTOX green fluorescence intensity: increased rapidly within 20 min
E. coli ATCC 25922
  SYTOX green fluorescence intensity: did not increase significantly in a short time (20 min)
[5]; S. aureus USA300 i.m., 48 h postinfection
  reduction in average bacterial load in thighs versus control group: 0.86 log10 CFU/g
[5]; n = 9/group, three died in PBS group
  mice that died after 48 h of infection: one
